Experimental findings from patent US20230203041A1, “ANTAGONISTS OF THE ADENOSINE A2A RECEPTOR” (AdoRx Therapeutics Limited, priority 2020, published 2023) are described below.

The target of test [1] is T1, human Adenosine A2a receptor (Homo sapiens, UniProt P29274).
T1 construct: expressed in transfected cells; host or cells: CHO cell membranes
Put plainly: Adenosine receptor TR-FRET binding assay (CA200645 displacement), A2a. Particulars: 100 nM CA200645, CHO cell membranes, 2 hours at room temperature. On the technique in general: TR-FRET usually uses a lanthanide donor and a delayed reading to cut background.

Test [2] addresses T2, human Adenosine A2b receptor (Homo sapiens, UniProt P29275).
T2 construct: expressed in transfected cells; host or cells: CHO cell membranes
T2 sequence (P29275 1-332): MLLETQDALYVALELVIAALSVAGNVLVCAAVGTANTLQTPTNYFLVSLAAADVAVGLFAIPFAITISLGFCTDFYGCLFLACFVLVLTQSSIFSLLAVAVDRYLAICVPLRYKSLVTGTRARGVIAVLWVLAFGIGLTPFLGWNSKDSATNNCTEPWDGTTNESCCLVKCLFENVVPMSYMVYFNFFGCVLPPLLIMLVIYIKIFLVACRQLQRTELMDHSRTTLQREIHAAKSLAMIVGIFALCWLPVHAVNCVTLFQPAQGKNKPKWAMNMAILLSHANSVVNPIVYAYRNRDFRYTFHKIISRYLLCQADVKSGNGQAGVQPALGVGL
Put plainly: Adenosine receptor TR-FRET binding assay (CA200645 displacement), A2b. The settings on record: 30 nM CA200645, CHO cell membranes, 2 hours at room temperature.

In test [3] the target is T3, human Adenosine A3 receptor (Homo sapiens, UniProt P0DMS8).
T3 sequence (P0DMS8 1-318): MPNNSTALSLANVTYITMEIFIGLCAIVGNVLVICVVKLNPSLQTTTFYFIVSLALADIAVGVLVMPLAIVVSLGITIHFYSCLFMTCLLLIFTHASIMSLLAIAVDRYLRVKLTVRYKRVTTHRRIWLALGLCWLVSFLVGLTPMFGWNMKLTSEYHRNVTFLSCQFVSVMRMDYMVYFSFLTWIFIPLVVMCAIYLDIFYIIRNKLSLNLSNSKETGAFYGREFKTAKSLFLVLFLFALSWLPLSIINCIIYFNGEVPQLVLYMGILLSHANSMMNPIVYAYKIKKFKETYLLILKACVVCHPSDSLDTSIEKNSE
Put plainly: Adenosine receptor TR-FRET binding assay (CA200645 displacement), A3.
Method: All FRET binding experiments were conducted at room temperature in white 384-well plates, in assay binding buffer containing 1×LabMed (Cisbio, France), 100 μg/mL saponin, 1% DMSO and 0.02% pluronic acid. Binding of the fluorescently labelled Adenosine receptor antagonist XAC (CA200645, FRET acceptor) to terbium-labelled A1, A2a, A2b and A3 adenosine receptors (FRET donors) was detected by time-resolved FRET due to the close proximity of the donor and acceptor in a binding event. To investigate the ability of unlabelled test compounds to bind to Adenosine A1, A2a, A2b and A3 receptors, dose response curves were constructed that determined the ability of a range of concentrations to inhibit the binding of 30 nM CA200645 to the A2b receptor and 100 nM CA200645 to the A1, A2a, and A3 receptor.
Serial dilution (1:3 dilutions) of test compounds in neat DMSO and transfer of a 400 nL sample of test compound into the assay plate was carried out using the Mosquito (TTP Labtech, UK). The compound samples were incubated for 2 hours at room temperature with a fixed concentration of CA200645 defined for each receptor (see above) and CHO cell membranes containing the human Adenosine A1 (0.5 μg/well), A2a (0.3 μg/well), A2b (1 μg/well) or A3 (1 μg/well) receptor in 40 μL of assay buffer. Total and non-specific binding of CA200645 was determined in the absence and presence of 10 μM XAC, respectively. Following 2 hours incubation, the level of CA200645 binding was detected on a Pherastar FSX (BMG Labtech, Germany) using standard TR-FRET settings. The terbium donor was excited with three laser flashes at a wavelength of 337 nm, and donor and acceptor emission was detected at 620 nm and 665 nm wavelengths, respectively. FRET ratios were obtained by multiplying the acceptor/donor ratio value by 10,000. Specific binding was determined by subtracting the non-specific binding FRET ratio from the total binding FRET ratio. Compound IC50 curves were analysed using GraphPad Prism 7.0 (GraphPad, USA) and Ki affinity values were determined from the obtained IC50 values using the method of Cheng and Prusoff.

In test [4] the target is T4, human Adenosine A1 receptor (Homo sapiens, UniProt P30542).
T4 sequence (P30542 1-326): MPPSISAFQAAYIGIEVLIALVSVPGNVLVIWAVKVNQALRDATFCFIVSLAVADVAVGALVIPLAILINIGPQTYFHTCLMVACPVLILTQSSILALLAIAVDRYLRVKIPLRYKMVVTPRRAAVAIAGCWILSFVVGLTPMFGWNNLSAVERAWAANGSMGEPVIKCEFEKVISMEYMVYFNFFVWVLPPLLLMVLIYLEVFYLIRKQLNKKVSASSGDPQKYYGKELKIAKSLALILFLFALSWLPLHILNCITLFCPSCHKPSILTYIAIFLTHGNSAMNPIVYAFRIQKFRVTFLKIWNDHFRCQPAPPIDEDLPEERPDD
Put plainly: Adenosine receptor TR-FRET binding assay (CA200645 displacement), A1.

Structures can show the parent of a compound that is named as a salt.

One may read the Ki as the dissociation constant of the complex between target and ligand, obtained from inhibition or displacement.

T1 sequence (P29274 whole entry): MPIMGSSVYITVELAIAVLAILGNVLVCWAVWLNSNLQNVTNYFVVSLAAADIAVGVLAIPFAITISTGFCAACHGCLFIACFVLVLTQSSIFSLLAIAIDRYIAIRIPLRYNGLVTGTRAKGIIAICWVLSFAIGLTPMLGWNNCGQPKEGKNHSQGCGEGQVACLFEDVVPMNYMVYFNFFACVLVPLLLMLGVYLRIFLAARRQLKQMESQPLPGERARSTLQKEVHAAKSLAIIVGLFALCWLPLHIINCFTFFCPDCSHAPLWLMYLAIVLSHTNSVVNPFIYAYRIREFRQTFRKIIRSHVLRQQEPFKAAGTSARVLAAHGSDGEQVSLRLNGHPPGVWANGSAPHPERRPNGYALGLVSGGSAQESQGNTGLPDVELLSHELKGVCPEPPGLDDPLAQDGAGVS

Regarding `Cc1cc(-c2c(-c3cccc(C#N)c3)nn3ccc(NC45CC(C(=O)O)(C4)C5)nc23)cc(Cl)n1` [Example 2.38], the Ki is 45.3 nM in test [1], 346 nM in test [2], more than 1000 nM in test [3] and 837 nM in test [4].

For `Cc1cc(-c2c(-c3cccc(C#N)c3)nn3ccc(NC4CCN(CCO)CC4)nc23)cc(Cl)n1` [Example 2.39], the Ki was 1.4 nM in test [1], 2 nM in test [2], more than 1000 nM in test [3] and 241 nM in test [4].

Take `Cc1cc(-c2c(-c3cccc(C#N)c3)nn3ccc(N4CCN[C@@H](C(C)(C)O)C4)nc23)cc(Cl)n1` [Example 2.40]: the inhibitory constant (Ki) was 5.7 nM in test [1], 23 nM in test [2], more than 1000 nM in test [3] and 145 nM in test [4].

With `Cc1cc(-c2c(-c3cccc(C#N)c3)nn3ccc(N4CCN[C@H](C(C)(C)O)C4)nc23)cc(Cl)n1` [Example 2.41], the Ki in test [1] was 1.7 nM; in test [2], 2 nM; in test [3], more than 1000 nM; in test [4], 82 nM.

With `Cc1cc(-c2c(-c3cccc(C#N)c3)nn3ccc(NC4CCN(C)CC4)nc23)cc(Cl)n1` [Example 2.42], the Ki in test [1] was 0.5 nM; in test [2] it was 4 nM; in test [3], more than 1000 nM; in test [4] it was 149 nM.

As for `Cc1cc(-c2c(-c3cccc(C#N)c3)nn3ccc(NC[C@@H]4COCCN4)nc23)cc(Cl)n1` [Example 4.1], the Ki is 38.5 nM in test [1], 163 nM in test [2], more than 1000 nM in test [3] and 522 nM in test [4].

For the compound `Cc1cc(-c2c(-c3cccc(C#N)c3)nn3ccc(N[C@@H]4CCNC4)nc23)cc(Cl)n1` [Example 4.3], the Ki in test [1] is 1.2 nM; in test [2], 3 nM; in test [3] it was more than 1000 nM; in test [4] it was 8 nM.

`Cc1cc(-c2c(-c3cccc(C#N)c3)nn3ccc(N4C[C@@H]5NCCO[C@H]5C4)nc23)cc(Cl)n1` [Example 4.4]: the Ki in test [1] was 3.2 nM; in test [2], 149 nM; in test [3], more than 1000 nM; in test [4], 1100 nM.

Take `Cc1cc(-c2c(-c3cccc(C#N)c3)nn3ccc(N[C@H]4CCNC4)nc23)cc(Cl)n1` [Example 4.6]: the Ki was 5.1 nM in test [1], 4 nM in test [2], more than 1000 nM in test [3] and 230 nM in test [4].

For the compound `Cc1cc(-c2c(-c3cccc(C#N)c3)nn3ccc(N[C@H]4CCCNC4)nc23)cc(Cl)n1` [Example 4.7], the Ki in test [1] was 13.9 nM; in test [2], 6 nM; in test [3] it was more than 1000 nM; in test [4], 213 nM.

Turning to `Cc1cc(-c2c(-c3cccc(C#N)c3)nn3ccc(N[C@H](C)[C@H](O)CO)nc23)cc(Cl)n1` [Example 4.8, 3-[3-(2-Chloro-6-methyl-4-pyridyl)-5-[[(1R,2S)-2,3-dihydroxy-1-methyl-propyl]amino]pyrazolo[1,5-a]pyrimidin-2-yl]benzonitrile], the Ki in test [1] was 0.5 nM; in test [2] it was 6 nM; in test [3] it was more than 1000 nM; in test [4], 7 nM.

Regarding `Cc1cc(-c2c(-c3cccc(C#N)c3)nn3ccc(N[C@@H](C)[C@H](O)CO)nc23)cc(Cl)n1` [Example 4.9, 3-[3-(2-Chloro-6-methyl-4-pyridyl)-5-[[(1S,2S)-2,3-dihydroxy-1-methyl-propyl]amino]pyrazolo[1,5-a]pyrimidin-2-yl]benzonitrile], the Ki in test [1] is 1.1 nM; in test [2], 12 nM; in test [3] it was more than 1000 nM; in test [4], 5 nM.

Turning to `Cc1cc(-c2c(-c3cccc(C#N)c3)nn3ccc(NCC(C)(C)N)nc23)cc(Cl)n1` [Example 4.10, trifluoroacetate], the Ki in test [1] was 3.3 nM; in test [2] it was 12 nM; in test [3], more than 1000 nM; in test [4], 43 nM.

Regarding `Cc1cc(-c2c(-c3cccc(C#N)c3)nn3ccc(NCC4(O)CNC4)nc23)cc(Cl)n1` [Example 4.11, 3-[3-(2-chloro-6-methyl-4-pyridyl)-5-[(3-hydroxyazetidin-3-yl)methylamino]pyrazolo[1,5-a]pyrimidin-2-yl]benzonitrile trifluoroacetate], the Ki in test [1] is 6.8 nM; in test [2], 1 nM; in test [3], more than 1000 nM; in test [4] it was 53 nM.

For the compound `Cc1cc(-c2c(-c3cccc(C#N)c3)nn3ccc(C(=O)NCCC(C)(C)O)nc23)cc(Cl)n1` [Example 5.3], the Ki in test [1] was 0.3 nM; in test [2], 20 nM; in test [3], more than 1000 nM; in test [4] it was 224 nM.

For `Cc1cc(-c2c(-c3cccc(C#N)c3)nn3ccc(C(=O)NCCN4CCN(c5ccccc5)CC4)nc23)cc(Cl)n1` [Example 5.4], the Ki was 1.3 nM in test [1], 19 nM in test [2], more than 1000 nM in test [3] and 107 nM in test [4].

For `Cc1cc(-c2c(-c3cccc(C#N)c3)nn3ccc(C(=O)N4CCOCC4)nc23)cc(Cl)n1` [Example 5.7], the inhibitory constant (Ki) in test [1] was 14.8 nM; in test [2], 10 nM; in test [3] it was more than 1000 nM; in test [4] it was 135 nM.

For the compound `Cc1cc(-c2c(-c3cccc(C#N)c3)nn3ccc(C(N)=O)nc23)cc(C)n1` [Example 5.8, 2-(3-Cyanophenyl)-3-(2,6-dimethyl-4-pyridyl)pyrazolo[1,5-a]pyrimidine-5-carboxamide], the Ki was 5.7 nM in test [1], 41 nM in test [2], more than 1000 nM in test [3] and 418 nM in test [4].

Take `Cc1cc(-c2c(-c3cccc(C#N)c3)nn3ccc(C(=O)NCC(C)(C)N)nc23)cc(Cl)n1` [Example 6.1, N-(2-Amino-2-methyl-propyl)-3-(2-chloro-6-methyl-4-pyridyl)-2-(3-cyanophenyl)pyrazolo[1,5-a]pyrimidine-5-carboxamide]: the Ki was 11.7 nM in test [1], 53 nM in test [2], more than 1000 nM in test [3] and 664 nM in test [4].

Turning to `Cc1cc(-c2c(-c3cccc(C#N)c3)nn3ccc(C(=O)NCC4(O)CCC4)nc23)cc(Cl)n1` [Example 6.3, 3-(2-Chloro-6-methyl-4-pyridyl)-2-(3-cyanophenyl)-N-[(1-hydroxycyclobutyl)methyl]pyrazolo[1,5-a]pyrimidine-5-carboxamide], the Ki was 0.3 nM in test [1], 3 nM in test [2], more than 1000 nM in test [3] and 127 nM in test [4].

On to `Cc1cc(-c2c(-c3cccc(C#N)c3)nn3ccc(C(=O)NC[C@@H](C)O)nc23)cc(Cl)n1` [Example 6.5, 3-(2-Chloro-6-methyl-4-pyridyl)-2-(3-cyanophenyl)-N-[(2R)-2-hydroxypropyl]pyrazolo[1,5-a]pyrimidine-5-carboxamide], for which the Ki is 0.9 nM in test [1], 7 nM in test [2], more than 1000 nM in test [3] and 361 nM in test [4].

With `Cc1cc(-c2c(-c3cccc(C#N)c3)nn3ccc(C(=O)N[C@H](C)CO)nc23)cc(Cl)n1` [Example 6.6, 3-(2-Chloro-6-methyl-4-pyridyl)-2-(3-cyanophenyl)-N-[(1R)-2-hydroxy-1-methyl-ethyl]pyrazolo[1,5-a]pyrimidine-5-carboxamide], the Ki in test [1] was 0.9 nM; in test [2], 35 nM; in test [3] it was more than 1000 nM; in test [4], 390 nM.

In the case of `Cc1cc(-c2c(-c3cccc(C#N)c3)nn3ccc(C(=O)NCC4(O)COC4)nc23)cc(Cl)n1` [Example 6.7, 3-(2-Chloro-6-methyl-4-pyridyl)-2-(3-cyanophenyl)-N-[(3-hydroxyoxetan-3-yl)methyl]pyrazolo[1,5-a]pyrimidine-5-carboxamide], the Ki was 1.4 nM in test [1], 5 nM in test [2], more than 1000 nM in test [3] and 174 nM in test [4].

In the case of `Cc1cc(-c2c(-c3cccc(C#N)c3)nn3ccc(C(=O)NS(C)(=O)=O)nc23)cc(Cl)n1` [Example 6.8, 3-(2-Chloro-6-methyl-4-pyridyl)-2-(3-cyanophenyl)-N-methylsulfonyl-pyrazolo[1,5-a]pyrimidine-5-carboxamide], the Ki in test [1] was determined as 8.3 nM; in test [2], 39 nM; in test [3], 2550 nM; in test [4], 522 nM.
